Biological target: T1, Daphnia Sir2 (Daphnia pulicaria, UniProt A0A0U3BSS1)
T1 construct: full-length ORF, N-terminal FLAG tag, pcDNA3.1-, in vitro translated in rabbit reticulocyte lysate (TNT T7), not purified; calculated mass 67 kD
T1 sequence (A0A0U3BSS1 1-601): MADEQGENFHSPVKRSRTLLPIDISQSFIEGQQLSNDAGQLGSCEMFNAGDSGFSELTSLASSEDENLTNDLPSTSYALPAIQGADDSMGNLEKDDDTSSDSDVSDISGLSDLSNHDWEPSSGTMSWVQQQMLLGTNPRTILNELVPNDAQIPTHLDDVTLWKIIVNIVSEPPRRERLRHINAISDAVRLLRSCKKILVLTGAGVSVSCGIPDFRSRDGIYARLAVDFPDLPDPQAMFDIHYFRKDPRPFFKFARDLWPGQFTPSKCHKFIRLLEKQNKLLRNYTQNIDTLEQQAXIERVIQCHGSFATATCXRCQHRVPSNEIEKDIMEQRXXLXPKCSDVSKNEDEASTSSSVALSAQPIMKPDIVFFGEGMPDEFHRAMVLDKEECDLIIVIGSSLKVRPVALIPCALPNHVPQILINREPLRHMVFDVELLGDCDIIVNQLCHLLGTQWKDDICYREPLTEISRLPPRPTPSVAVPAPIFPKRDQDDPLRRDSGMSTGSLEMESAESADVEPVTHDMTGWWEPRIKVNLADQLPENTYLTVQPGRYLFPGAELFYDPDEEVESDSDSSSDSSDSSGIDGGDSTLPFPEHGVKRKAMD
Test: fluorogenic acetylated-peptide deacetylase assay (Abcam ab156065)
Format: biochemical
Settings: in vitro translated protein in reticulocyte lysate, lysate background subtracted; inhibitor concentration not told for this test; peptidase-coupled

NC(=O)C1CCCc2c1[nH]c1ccc(Cl)cc21 (stereo not shown) [Ex527]
inhibition of deacetylase activity: human recombinant Sirt1 as well as Daphnia Sir2 activity is significantly diminished by the inhibitor

From article PMC4789591, “Involvement of Daphnia pulicaria Sir2 in regulating stress response and lifespan” (Aging (Albany NY), 2016)
